Experimental findings from the NIST ThermoML archive (doi:10.1016/j.jct.2012.09.017) are described below.

Numbers after ± are expanded uncertainties.

A short description of this data set: activity coefficient (dimensionless); of the first substance listed, at infinite dilution; xn = mol fraction of the nth substance listed. Particulars: 101 kPa, Liquid, Chromatography, x1 = 0.

In the case of `C=CCCCCCC` [oct-1-ene] + CCCC[N+]1(C)CCCC1.O=C1O[B-]2(OC1=O)OC(=O)C(=O)O2, the activity coefficient (333.15 K) was determined as 41.4 ± 2.1; the activity coefficient (343.15 K) is 37.5 ± 1.9; the activity coefficient (353.15 K) was 34.3 ± 1.8; the activity coefficient (363.15 K) came to 31.5 ± 1.6; the activity coefficient (373.15 K) was determined as 29.3 ± 1.5.
With `c1ccccc1` [benzene] + CCCC[N+]1(C)CCCC1.N#C[B-](C#N)(C#N)C#N, the activity coefficient runs as follows: (318.15 K) 0.833 ± 0.039; (323.15 K) 0.841 ± 0.039; (333.15 K) 0.858 ± 0.039; (343.15 K) 0.874 ± 0.04; (353.15 K) 0.891 ± 0.04.
For the compound `COC(C)=O` [methyl ethanoate] + CCCC[N+]1(C)CCCC1.O=C1O[B-]2(OC1=O)OC(=O)C(=O)O2, the activity coefficient reads like this: (333.15 K) 1.03 ± 0.05; (343.15 K) 1.04 ± 0.05; (353.15 K) 1.06 ± 0.05; (363.15 K) 1.08 ± 0.05; (373.15 K) 1.09 ± 0.05.
As to `C1CCOC1` [tetrahydrofuran] + CCCC[N+]1(C)CCCC1.N#C[B-](C#N)(C#N)C#N, the activity coefficient reads like this: (318.15 K) 0.622 ± 0.033; (323.15 K) 0.632 ± 0.033; (333.15 K) 0.65 ± 0.034; (343.15 K) 0.667 ± 0.034; (353.15 K) 0.683 ± 0.034.
Taken in the same sequence, the figures for `ClCCl` [dichloromethane] + CCCC[N+]1(C)CCCC1.N#C[B-](C#N)(C#N)C#N were 0.536 ± 0.031, 0.542 ± 0.031, 0.59 ± 0.03, 0.574 ± 0.032 and 0.59 ± 0.032.
For `CCC1CCCCC1` [ethylcyclohexane] + CCCC[N+]1(C)CCCC1.N#C[B-](C#N)(C#N)C#N, in that order: 17.6 ± 0.9, 17 ± 0.9, 15.8 ± 0.8, 14.8 ± 0.8 and 13.9 ± 0.7.
Consider `COC(C)(C)C` [2-methoxy-2-methylpropane] + CCCC[N+]1(C)CCCC1.O=C1O[B-]2(OC1=O)OC(=O)C(=O)O2, for which the activity coefficient is 6.34 ± 0.33 (333.15 K); 6.06 ± 0.31 (343.15 K); 5.87 ± 0.3 (353.15 K); 5.7 ± 0.29 (363.15 K); 5.57 ± 0.29 (373.15 K).
`CCC(C)=O` [butanone] + CCCC[N+]1(C)CCCC1.N#C[B-](C#N)(C#N)C#N: the activity coefficient by setting is: (318.15 K) 0.546 ± 0.031; (323.15 K) 0.551 ± 0.031; (333.15 K) 0.564 ± 0.032; (343.15 K) 0.575 ± 0.032; (353.15 K) 0.588 ± 0.032.
As for `COC(=O)OC` [dimethyl carbonate] + CCCC[N+]1(C)CCCC1.O=C1O[B-]2(OC1=O)OC(=O)C(=O)O2, the activity coefficient by setting is: (333.15 K) 0.853 ± 0.039; (343.15 K) 0.861 ± 0.039; (353.15 K) 0.87 ± 0.04; (363.15 K) 0.877 ± 0.04; (373.15 K) 0.884 ± 0.04.
Turning to `CCc1ccccc1` [ethylbenzene] + CCCC[N+]1(C)CCCC1.N#C[B-](C#N)(C#N)C#N, the activity coefficient is, setting by setting: (318.15 K) 1.65 ± 0.08; (323.15 K) 1.66 ± 0.08; (333.15 K) 1.68 ± 0.08; (343.15 K) 1.71 ± 0.09; (353.15 K) 1.73 ± 0.09.
For the compound `ClCCl` [dichloromethane] + CCCC[N+]1(C)CCCC1.O=C1O[B-]2(OC1=O)OC(=O)C(=O)O2, the activity coefficient (333.15 K) was determined as 0.745 ± 0.036; the activity coefficient (343.15 K) worked out at 0.76 ± 0.037; the activity coefficient (353.15 K) came to 0.774 ± 0.037; the activity coefficient (363.15 K) came to 0.789 ± 0.037; the activity coefficient (373.15 K) was determined as 0.803 ± 0.038.
`CCOC(C)=O` [ethyl acetate] + CCCC[N+]1(C)CCCC1.N#C[B-](C#N)(C#N)C#N: the activity coefficient is, setting by setting: (318.15 K) 0.942 ± 0.042; (323.15 K) 0.949 ± 0.042; (333.15 K) 0.967 ± 0.043; (343.15 K) 0.982 ± 0.043; (353.15 K) 1 ± 0.04.
As to `ClC(Cl)Cl` [trichloromethane] + CCCC[N+]1(C)CCCC1.O=C1O[B-]2(OC1=O)OC(=O)C(=O)O2, the activity coefficient amounted to 1 ± 0.04 (333.15 K); 1.03 ± 0.05 (343.15 K); 1.06 ± 0.05 (353.15 K); 1.08 ± 0.05 (363.15 K); 1.11 ± 0.05 (373.15 K).
`ClC(Cl)(Cl)Cl` [tetrachloromethane] + CCCC[N+]1(C)CCCC1.N#C[B-](C#N)(C#N)C#N: the activity coefficient (318.15 K) worked out at 2.4 ± 0.12; the activity coefficient (323.15 K) came to 2.41 ± 0.12; the activity coefficient (333.15 K) was 2.43 ± 0.12; the activity coefficient (343.15 K) came out at 2.45 ± 0.13; the activity coefficient (353.15 K) was 2.47 ± 0.13.
Regarding `CCO` [ethanol] + CCCC[N+]1(C)CCCC1.O=C1O[B-]2(OC1=O)OC(=O)C(=O)O2, the activity coefficient amounted to 1.92 ± 0.1 (333.15 K); 1.75 ± 0.09 (343.15 K); 1.61 ± 0.08 (353.15 K); 1.49 ± 0.07 (363.15 K); 1.38 ± 0.07 (373.15 K).
Consider `CC(C)O` [propan-2-ol] + CCCC[N+]1(C)CCCC1.O=C1O[B-]2(OC1=O)OC(=O)C(=O)O2, for which the activity coefficient amounted to 1.98 ± 0.1 (363.15 K) and 1.83 ± 0.09 (373.15 K).
For `c1ccccc1` [benzene] + CCCC[N+]1(C)CCCC1.O=C1O[B-]2(OC1=O)OC(=O)C(=O)O2, the activity coefficient was determined as 1.65 ± 0.08 (333.15 K); 1.63 ± 0.08 (343.15 K); 1.61 ± 0.08 (353.15 K); 1.6 ± 0.08 (363.15 K); 1.59 ± 0.08 (373.15 K).
Take `CO` [methanol] + CCCC[N+]1(C)CCCC1.N#C[B-](C#N)(C#N)C#N: the activity coefficient stood at 1.03 ± 0.05 (318.15 K); 0.992 ± 0.043 (323.15 K); 0.931 ± 0.042 (333.15 K); 0.878 ± 0.04 (343.15 K); 0.831 ± 0.039 (353.15 K).
`CCCO` [propan-1-ol] + CCCC[N+]1(C)CCCC1.O=C1O[B-]2(OC1=O)OC(=O)C(=O)O2: the activity coefficient was 2.56 ± 0.13 (333.15 K); 2.3 ± 0.12 (343.15 K); 2.08 ± 0.11 (353.15 K); 1.9 ± 0.1 (363.15 K); 1.76 ± 0.09 (373.15 K).
In the case of `CCCCCCCC` [octane] + CCCC[N+]1(C)CCCC1.N#C[B-](C#N)(C#N)C#N, the activity coefficient by setting is: (318.15 K) 33.2 ± 1.7; (323.15 K) 31.8 ± 1.6; (333.15 K) 29.4 ± 1.5; (343.15 K) 27.4 ± 1.4; (353.15 K) 25.6 ± 1.3.
Taken in the same sequence, the figures for `Cc1ccccc1` [toluene] + CCCC[N+]1(C)CCCC1.N#C[B-](C#N)(C#N)C#N were 1.13 ± 0.05, 1.15 ± 0.05, 1.17 ± 0.05, 1.19 ± 0.05 and 1.22 ± 0.06.
With `CCCCCCC` [heptane] + CCCC[N+]1(C)CCCC1.O=C1O[B-]2(OC1=O)OC(=O)C(=O)O2, the activity coefficient worked out at 62.9 ± 3.3 (333.15 K); 55.4 ± 2.9 (343.15 K); 49.5 ± 2.6 (353.15 K); 44.7 ± 2.3 (363.15 K); 40.8 ± 2.1 (373.15 K).
For `CC(C)=O` [acetone] + CCCC[N+]1(C)CCCC1.O=C1O[B-]2(OC1=O)OC(=O)C(=O)O2, in that order: 0.762 ± 0.037, 0.767 ± 0.037, 0.773 ± 0.037, 0.778 ± 0.037 and 0.784 ± 0.037.
For `CCc1ccccc1` [ethylbenzene] + CCCC[N+]1(C)CCCC1.O=C1O[B-]2(OC1=O)OC(=O)C(=O)O2, in that order: 3.97 ± 0.2, 3.85 ± 0.2, 3.74 ± 0.19, 3.65 ± 0.19 and 3.56 ± 0.18.
Take `CC1CCCCC1` [methylcyclohexane] + CCCC[N+]1(C)CCCC1.N#C[B-](C#N)(C#N)C#N: the activity coefficient runs as follows: (318.15 K) 12.2 ± 0.6; (323.15 K) 11.8 ± 0.6; (333.15 K) 11.2 ± 0.6; (343.15 K) 10.6 ± 0.5; (353.15 K) 10.1 ± 0.5.
For `Cc1cccc(C)c1` [1,3-dimethylbenzene] + CCCC[N+]1(C)CCCC1.N#C[B-](C#N)(C#N)C#N, in that order: 1.63 ± 0.08, 1.64 ± 0.08, 1.66 ± 0.08, 1.69 ± 0.08 and 1.72 ± 0.09.
For `FC(F)(F)C(Cl)Br` (configuration not stated) [1-bromo-1-chloro-2,2,2-trifluoroethane] + CCCC[N+]1(C)CCCC1.N#C[B-](C#N)(C#N)C#N, in that order: 0.842 ± 0.039, 0.869 ± 0.04, 0.923 ± 0.041, 0.977 ± 0.043 and 1.03 ± 0.05.
As to `COC(=O)OC` [dimethyl carbonate] + CCCC[N+]1(C)CCCC1.N#C[B-](C#N)(C#N)C#N, the activity coefficient reads like this: (318.15 K) 0.522 ± 0.031; (323.15 K) 0.529 ± 0.031; (333.15 K) 0.543 ± 0.031; (343.15 K) 0.556 ± 0.032; (353.15 K) 0.57 ± 0.032.
For `CC(C)OC(C)C` [diisopropyl ether] + CCCC[N+]1(C)CCCC1.N#C[B-](C#N)(C#N)C#N, in that order: 5.87 ± 0.3, 5.88 ± 0.3, 5.86 ± 0.3, 5.85 ± 0.3 and 5.84 ± 0.3.
`CO` [methanol] + CCCC[N+]1(C)CCCC1.O=C1O[B-]2(OC1=O)OC(=O)C(=O)O2: the activity coefficient runs as follows: (333.15 K) 1.27 ± 0.06; (343.15 K) 1.19 ± 0.05; (353.15 K) 1.11 ± 0.05; (363.15 K) 1.05 ± 0.05; (373.15 K) 0.99 ± 0.043.
